# Laboratory results reported in patent publication US8802849B2, “Tricyclic benzo[4,5]thieno-[2,3-d]pyrimidine-4-yl-amin derivatives, their salts, process for producing the compounds and their pharmaceutical use” (Vichem Chemie Kutató Kft., priority 2008, dated 2014).
# Tests used:
# EGFR = EGFR (Homo sapiens, UniProt P00533); assay: EGFR kinase assay (33P-ATP filter plate); format: biochemical; conditions: for inhibition at 10 µM: 10 μM compound, read-out: EGFR percent of inhibition; for IC50: EGFR-PTK assay
# Experimental: (§1) General description of the kinase assays: the kinase activity was assayed in 96-well microtiter plates at a final compound concentration of 10 μM in a total volume of 50 μl. Compounds were dissolved in 100% DMSO to prepare a 10 mM stock solution and than diluted with buffer to reach a 10 μM (or the required) final concentration. The kinase concentration was used to yield 10% ATP turn over. The ATP concentration was used at the KmATP and 12.5 μCi/ml adenosine 5′[γ-33P]triphosphate. The substrate concentration was used at 5 fold excess over the Km for the substrate. The reaction was incubated for 1 hour at room temperature and stopped by addition of 10 μl 50 mM EDTA. The assay was transferred to a 96 well MAPH filter plate (Millipore). The radioactivity was counted on a Microbeta microplate counter.
# AKT1/PKBa = AKT1/PKBa (Homo sapiens, UniProt P31749); assay: AKT1/PKBa kinase assay; format: biochemical; conditions: 10 μM compound; read-out: AKT1/PKBa percent of inhibition
# Sequence of AKT1/PKBa (P31749 whole entry): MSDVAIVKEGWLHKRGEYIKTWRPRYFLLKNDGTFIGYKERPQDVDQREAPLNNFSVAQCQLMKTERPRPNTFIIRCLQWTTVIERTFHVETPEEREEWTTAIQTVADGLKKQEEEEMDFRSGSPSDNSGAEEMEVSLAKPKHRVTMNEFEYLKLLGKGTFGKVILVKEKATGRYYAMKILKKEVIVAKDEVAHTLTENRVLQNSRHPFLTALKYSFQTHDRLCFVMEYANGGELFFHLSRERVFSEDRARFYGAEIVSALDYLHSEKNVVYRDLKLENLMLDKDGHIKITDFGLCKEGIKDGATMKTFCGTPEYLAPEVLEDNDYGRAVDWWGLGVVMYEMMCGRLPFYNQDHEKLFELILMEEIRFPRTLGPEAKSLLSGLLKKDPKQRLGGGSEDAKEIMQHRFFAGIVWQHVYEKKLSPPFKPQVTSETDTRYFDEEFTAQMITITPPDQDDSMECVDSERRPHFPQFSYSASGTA
# Experimental: as §1
# Abl = Abl (Homo sapiens, UniProt P00519); assay: Abl kinase assay; format: biochemical; conditions: 10 μM compound; read-out: Abl percent of inhibition
# Experimental: as §1
# CDK2/CycA = CDK2/CycA (Homo sapiens, UniProt P24941); assay: CDK2/CycA kinase assay; format: biochemical; conditions: 10 μM compound; read-out: CDK2/CycA percent of inhibition
# Experimental: as §1
# CK1-alpha = CK1-alpha (Homo sapiens, UniProt P48729); assay: CK1-alpha kinase assay; format: biochemical; conditions: 10 μM compound; read-out: CK1-alpha percent of inhibition
# Sequence of CK1-alpha (P48729 whole entry): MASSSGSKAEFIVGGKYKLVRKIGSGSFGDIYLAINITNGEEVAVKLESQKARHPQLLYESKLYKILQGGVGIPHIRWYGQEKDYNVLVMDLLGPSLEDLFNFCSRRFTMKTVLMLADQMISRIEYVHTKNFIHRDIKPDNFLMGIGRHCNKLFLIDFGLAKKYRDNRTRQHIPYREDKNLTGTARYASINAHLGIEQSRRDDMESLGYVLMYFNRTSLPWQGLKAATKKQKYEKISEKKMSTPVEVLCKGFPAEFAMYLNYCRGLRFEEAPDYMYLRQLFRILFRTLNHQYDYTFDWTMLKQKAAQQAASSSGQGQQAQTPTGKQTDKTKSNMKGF
# Experimental: as §1
# GSK-3beta = GSK-3beta (Homo sapiens, UniProt P49841); assay: GSK-3beta kinase assay; format: biochemical; conditions: 10 μM compound; read-out: GSK-3beta percent of inhibition
# Sequence of GSK-3beta (P49841 whole entry, species assumed): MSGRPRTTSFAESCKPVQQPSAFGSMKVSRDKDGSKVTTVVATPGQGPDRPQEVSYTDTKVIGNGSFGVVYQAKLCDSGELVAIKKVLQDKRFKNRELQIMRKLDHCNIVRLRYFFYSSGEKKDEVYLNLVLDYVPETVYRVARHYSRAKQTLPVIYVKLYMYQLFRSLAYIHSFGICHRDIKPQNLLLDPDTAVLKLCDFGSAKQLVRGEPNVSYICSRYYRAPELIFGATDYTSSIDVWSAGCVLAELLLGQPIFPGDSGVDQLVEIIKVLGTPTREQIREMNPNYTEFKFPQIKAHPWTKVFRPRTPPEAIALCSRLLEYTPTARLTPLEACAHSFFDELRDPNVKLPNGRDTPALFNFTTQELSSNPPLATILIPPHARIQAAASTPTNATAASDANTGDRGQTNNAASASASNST
# Experimental: as §1
# IKK-beta = target: T1, IKK-beta (Homo sapiens, UniProt O14920); assay: IKK-beta kinase assay; format: biochemical; conditions: 10 μM compound; read-out: IKK-beta percent of inhibition
# T1 sequence (O14920 1-756): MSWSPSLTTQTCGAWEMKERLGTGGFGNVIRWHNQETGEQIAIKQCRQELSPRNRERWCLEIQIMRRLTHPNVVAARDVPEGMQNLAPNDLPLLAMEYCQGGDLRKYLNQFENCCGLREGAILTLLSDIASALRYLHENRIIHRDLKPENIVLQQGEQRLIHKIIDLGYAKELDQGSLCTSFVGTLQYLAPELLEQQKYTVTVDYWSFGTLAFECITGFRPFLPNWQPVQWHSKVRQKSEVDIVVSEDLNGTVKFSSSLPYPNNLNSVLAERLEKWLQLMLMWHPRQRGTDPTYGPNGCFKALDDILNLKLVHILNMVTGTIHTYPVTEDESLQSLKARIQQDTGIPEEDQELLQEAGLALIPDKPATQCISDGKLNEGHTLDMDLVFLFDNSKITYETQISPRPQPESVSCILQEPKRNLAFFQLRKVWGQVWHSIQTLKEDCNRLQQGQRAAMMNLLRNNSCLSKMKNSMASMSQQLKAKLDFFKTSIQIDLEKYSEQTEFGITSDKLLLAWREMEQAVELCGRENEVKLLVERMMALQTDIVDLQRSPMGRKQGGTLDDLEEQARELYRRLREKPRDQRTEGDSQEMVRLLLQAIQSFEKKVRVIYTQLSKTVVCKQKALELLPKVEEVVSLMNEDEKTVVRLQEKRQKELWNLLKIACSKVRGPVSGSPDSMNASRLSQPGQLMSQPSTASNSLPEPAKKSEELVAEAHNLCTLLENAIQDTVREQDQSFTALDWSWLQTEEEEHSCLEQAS
# Experimental: as §1
# InsR = InsR (Homo sapiens, UniProt P06213); assay: InsR kinase assay; format: biochemical; conditions: 10 μM compound; read-out: InsR percent of inhibition
# Experimental: as §1
# Jnk1a1 = Jnk1a1 (Homo sapiens, UniProt P45983); assay: Jnk1a1 kinase assay; format: biochemical; conditions: 10 μM compound; read-out: Jnk1a1 percent of inhibition
# Sequence of Jnk1a1 (P45983 1-384 isoform P45983-2): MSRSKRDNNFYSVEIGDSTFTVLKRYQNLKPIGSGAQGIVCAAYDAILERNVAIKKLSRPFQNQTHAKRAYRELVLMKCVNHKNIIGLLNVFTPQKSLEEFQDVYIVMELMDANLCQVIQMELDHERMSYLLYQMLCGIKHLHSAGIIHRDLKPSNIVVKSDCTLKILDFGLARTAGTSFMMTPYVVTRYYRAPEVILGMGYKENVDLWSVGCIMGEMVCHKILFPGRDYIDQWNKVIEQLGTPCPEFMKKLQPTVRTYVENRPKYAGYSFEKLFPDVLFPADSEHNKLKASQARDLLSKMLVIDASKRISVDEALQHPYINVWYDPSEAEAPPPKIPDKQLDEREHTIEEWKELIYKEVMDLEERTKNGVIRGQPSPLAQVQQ
# Experimental: as §1
# Kit = Kit (Homo sapiens, UniProt P10721); assay: Kit kinase assay; format: biochemical; conditions: 10 μM compound; read-out: Kit percent of inhibition
# Sequence of Kit (P10721 26-976, species assumed): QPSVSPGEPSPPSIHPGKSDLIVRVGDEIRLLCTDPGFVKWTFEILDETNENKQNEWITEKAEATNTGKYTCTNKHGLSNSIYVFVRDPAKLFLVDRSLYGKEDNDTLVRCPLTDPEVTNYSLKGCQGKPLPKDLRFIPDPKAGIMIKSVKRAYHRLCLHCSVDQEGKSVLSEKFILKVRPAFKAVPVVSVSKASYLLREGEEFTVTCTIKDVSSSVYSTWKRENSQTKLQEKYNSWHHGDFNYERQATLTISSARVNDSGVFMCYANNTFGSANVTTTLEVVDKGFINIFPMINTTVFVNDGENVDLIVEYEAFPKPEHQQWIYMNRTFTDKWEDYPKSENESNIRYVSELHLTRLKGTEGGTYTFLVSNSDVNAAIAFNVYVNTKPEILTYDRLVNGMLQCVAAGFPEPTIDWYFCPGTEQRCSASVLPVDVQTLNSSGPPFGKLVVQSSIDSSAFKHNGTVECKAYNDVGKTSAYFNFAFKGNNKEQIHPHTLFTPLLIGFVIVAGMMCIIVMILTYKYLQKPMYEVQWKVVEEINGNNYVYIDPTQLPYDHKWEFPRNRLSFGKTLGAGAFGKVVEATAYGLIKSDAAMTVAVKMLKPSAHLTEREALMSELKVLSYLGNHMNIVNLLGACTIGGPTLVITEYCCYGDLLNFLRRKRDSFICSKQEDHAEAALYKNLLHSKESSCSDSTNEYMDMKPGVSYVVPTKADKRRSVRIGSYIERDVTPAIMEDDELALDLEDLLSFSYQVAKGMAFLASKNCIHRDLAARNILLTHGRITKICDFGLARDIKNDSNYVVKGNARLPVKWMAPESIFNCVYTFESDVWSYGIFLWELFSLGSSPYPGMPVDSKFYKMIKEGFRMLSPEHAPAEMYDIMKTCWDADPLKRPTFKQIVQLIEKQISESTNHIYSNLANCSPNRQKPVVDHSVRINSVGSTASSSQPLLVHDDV
# Experimental: as §1
# MAPK-ERK1 = MAPK-ERK1 (Homo sapiens, UniProt P27361); assay: MAPK-ERK1 kinase assay; format: biochemical; conditions: 10 μM compound; read-out: MAPK-ERK1 percent of inhibition
# Sequence of MAPK-ERK1 (P27361 whole entry): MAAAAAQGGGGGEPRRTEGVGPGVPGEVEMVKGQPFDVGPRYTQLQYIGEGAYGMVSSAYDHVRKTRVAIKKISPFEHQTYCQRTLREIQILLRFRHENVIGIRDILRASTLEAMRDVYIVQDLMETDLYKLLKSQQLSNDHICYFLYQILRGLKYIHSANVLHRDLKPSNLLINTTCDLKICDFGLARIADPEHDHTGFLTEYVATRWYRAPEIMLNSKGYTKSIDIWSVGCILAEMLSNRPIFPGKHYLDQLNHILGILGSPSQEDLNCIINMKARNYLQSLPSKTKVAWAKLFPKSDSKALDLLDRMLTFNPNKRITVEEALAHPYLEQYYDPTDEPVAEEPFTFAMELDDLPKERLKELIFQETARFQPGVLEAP
# Experimental: as §1
# PDGFR-beta = PDGFR-beta (Homo sapiens, UniProt P09619); assay: PDGFR-beta kinase assay; format: biochemical; conditions: 10 μM compound; read-out: PDGFR-beta percent of inhibition
# Experimental: as §1
# ROCK2 = ROCK2 (Homo sapiens, UniProt O75116); assay: ROCK2 kinase assay; format: biochemical; conditions: 10 μM compound; read-out: ROCK2 percent of inhibition
# Sequence of ROCK2 (O75116 whole entry, species assumed): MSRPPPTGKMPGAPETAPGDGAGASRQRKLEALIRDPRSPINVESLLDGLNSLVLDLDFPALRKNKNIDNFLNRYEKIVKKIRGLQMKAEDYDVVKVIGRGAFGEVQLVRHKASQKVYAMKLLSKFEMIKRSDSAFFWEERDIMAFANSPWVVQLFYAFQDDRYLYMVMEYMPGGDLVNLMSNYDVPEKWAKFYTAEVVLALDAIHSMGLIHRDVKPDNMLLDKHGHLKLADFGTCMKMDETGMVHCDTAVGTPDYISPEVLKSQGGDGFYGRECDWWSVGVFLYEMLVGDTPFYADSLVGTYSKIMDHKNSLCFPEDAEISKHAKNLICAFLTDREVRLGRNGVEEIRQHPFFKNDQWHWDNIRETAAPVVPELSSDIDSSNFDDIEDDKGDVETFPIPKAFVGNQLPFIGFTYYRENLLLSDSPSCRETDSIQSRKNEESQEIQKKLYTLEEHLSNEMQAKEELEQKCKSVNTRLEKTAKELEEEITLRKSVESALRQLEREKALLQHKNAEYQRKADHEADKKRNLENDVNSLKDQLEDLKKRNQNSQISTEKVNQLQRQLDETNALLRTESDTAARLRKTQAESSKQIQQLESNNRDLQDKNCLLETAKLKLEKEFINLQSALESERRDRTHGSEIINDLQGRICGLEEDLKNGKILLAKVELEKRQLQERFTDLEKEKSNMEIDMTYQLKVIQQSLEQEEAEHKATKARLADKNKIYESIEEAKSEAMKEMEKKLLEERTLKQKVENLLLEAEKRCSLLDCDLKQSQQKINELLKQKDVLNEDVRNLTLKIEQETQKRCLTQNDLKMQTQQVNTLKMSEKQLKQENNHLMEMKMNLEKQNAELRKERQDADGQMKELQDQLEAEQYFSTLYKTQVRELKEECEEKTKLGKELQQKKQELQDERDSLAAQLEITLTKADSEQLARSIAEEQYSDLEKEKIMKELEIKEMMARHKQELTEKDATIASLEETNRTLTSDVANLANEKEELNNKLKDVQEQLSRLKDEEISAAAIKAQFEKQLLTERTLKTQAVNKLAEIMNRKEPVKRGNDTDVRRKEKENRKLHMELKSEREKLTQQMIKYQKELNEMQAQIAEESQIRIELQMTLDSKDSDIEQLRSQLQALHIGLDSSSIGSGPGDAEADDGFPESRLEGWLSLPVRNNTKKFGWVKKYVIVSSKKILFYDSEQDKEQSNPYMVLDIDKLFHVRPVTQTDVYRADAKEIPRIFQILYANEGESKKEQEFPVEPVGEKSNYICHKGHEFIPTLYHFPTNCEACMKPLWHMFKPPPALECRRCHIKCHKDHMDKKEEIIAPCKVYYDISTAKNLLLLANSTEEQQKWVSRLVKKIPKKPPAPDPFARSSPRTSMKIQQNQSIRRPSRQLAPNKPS
# Experimental: as §1
# RSK1 = RSK1 (Homo sapiens, UniProt Q15418); assay: RSK1 kinase assay; format: biochemical; conditions: 10 μM compound; read-out: RSK1 percent of inhibition
# Experimental: as §1
# SRPK1 = SRPK1 (Homo sapiens, UniProt Q96SB4); assay: SRPK1 kinase assay; format: biochemical; conditions: 10 μM compound; read-out: SRPK1 percent of inhibition
# Experimental: as §1
# c-Raf = c-Raf (Homo sapiens, UniProt P04049); assay: c-Raf kinase assay; format: biochemical; conditions: 10 μM compound; read-out: c-Raf percent of inhibition
# Experimental: as §1
# c-Src = c-Src (Homo sapiens, UniProt P12931); assay: c-Src kinase assay; format: biochemical; conditions: 10 μM compound; read-out: c-Src percent of inhibition
# Sequence of c-Src (P12931 whole entry, species assumed): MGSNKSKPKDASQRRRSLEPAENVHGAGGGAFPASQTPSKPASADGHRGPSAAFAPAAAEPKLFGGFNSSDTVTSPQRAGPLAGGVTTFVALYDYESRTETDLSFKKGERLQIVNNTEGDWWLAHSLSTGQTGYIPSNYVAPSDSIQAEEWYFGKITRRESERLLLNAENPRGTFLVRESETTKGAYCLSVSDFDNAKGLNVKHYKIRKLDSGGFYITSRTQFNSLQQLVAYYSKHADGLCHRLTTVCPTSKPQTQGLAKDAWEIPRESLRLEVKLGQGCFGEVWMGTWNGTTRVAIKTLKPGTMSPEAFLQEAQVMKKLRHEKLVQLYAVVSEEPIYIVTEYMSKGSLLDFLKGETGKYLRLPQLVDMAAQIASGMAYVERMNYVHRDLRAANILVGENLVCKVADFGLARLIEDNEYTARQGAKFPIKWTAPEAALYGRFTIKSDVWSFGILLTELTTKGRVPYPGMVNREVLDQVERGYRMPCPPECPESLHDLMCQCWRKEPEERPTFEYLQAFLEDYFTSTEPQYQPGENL
# Experimental: as §1
# cMet = cMet (Homo sapiens, UniProt P08581); assay: cMet kinase assay; format: biochemical; conditions: 10 μM compound; read-out: cMet percent of inhibition
# Experimental: as §1
# P56Lck = P56Lck (Homo sapiens, UniProt P06239); assay: P56Lck kinase assay; format: biochemical; conditions: 10 μM compound; read-out: P56Lck percent of inhibition
# Experimental: as §1
# P70S6K = P70S6K (Homo sapiens, UniProt P23443); assay: P70S6K kinase assay; format: biochemical; conditions: 10 μM compound; read-out: P70S6K percent of inhibition
# Experimental: as §1
SMILES,inhibition at 10 µM (EGFR) [%],inhibition at 10 µM (AKT1/PKBa) [%],inhibition at 10 µM (Abl) [%],inhibition at 10 µM (CDK2/CycA) [%],inhibition at 10 µM (CK1-alpha) [%],inhibition at 10 µM (GSK-3beta) [%],inhibition at 10 µM (IKK-beta) [%],inhibition at 10 µM (InsR) [%],inhibition at 10 µM (Jnk1a1) [%],inhibition at 10 µM (Kit) [%],inhibition at 10 µM (MAPK-ERK1) [%],inhibition at 10 µM (PDGFR-beta) [%],inhibition at 10 µM (ROCK2) [%],inhibition at 10 µM (RSK1) [%],inhibition at 10 µM (SRPK1) [%],inhibition at 10 µM (c-Raf) [%],inhibition at 10 µM (c-Src) [%],inhibition at 10 µM (cMet) [%],inhibition at 10 µM (P56Lck) [%],inhibition at 10 µM (P70S6K) [%],also measured
"COc1cccc(Nc2nc(C3CC3)nc3sc4ccccc4c23)c1 [Compound 20, (2-Cyclopropyl-benzo[4,5]thieno[2,3-d]pyrimidin-4-yl)-(3-methoxy-phenyl)-amine]",46,-2,7,4,3,0,9,-12,-5,8,21,-1,0,7,18,9,23,-2,0,9,melting point: 198 °C
"Fc1cccc(Nc2ncnc3sc4ccccc4c23)c1 [Compound 21, Benzo[4,5]thieno[2,3-d]pyrimidin-4-yl-(3-fluoro-phenyl)-amine]",98,3,-4,-10,0,3,2,7,-2,-4,1,-3,4,1,8,-2,3,1,-9,7,IC50 (EGFR): 26.9 nM; melting point: 171 °C
"Fc1cccc(Nc2ncnc3sc4c(c23)CCCC4)c1 [Compound 2, (3-Fluoro-phenyl)-(5,6,7,8-tetrahydro-benzo[4,5]thieno[2,3-d]pyrimidin-4-yl)-amine]",98,-7,-19,-1,6,3,19,-6,-3,-5,-14,4,6,-22,-5,16,6,-10,25,-26,IC50 (EGFR): 12.4 nM; melting point: 210.6 °C
"FC(F)(F)c1cccc(Nc2nc(C3CC3)nc3sc4c(c23)CCCC4)c1 [Compound 11, (2-Cyclopropyl-5,6,7,8-tetrahydro-benzo[4,5]thieno[2,3-d]pyrimidin-4-yl)-(3-trifluoromethyl-phenyl)-amine]",4,1,0,-5,-1,-3,4,-6,-3,-1,4,-4,6,-14,-5,2,8,3,-7,20,melting point: 204.8 °C
"Fc1ccc(Nc2ncnc3sc4c(c23)CCCC4)cc1 [Compound 6, (4-Fluoro-phenyl)-(5,6,7,8-tetrahydro-benzo[4,5]thieno[2,3-d]pyrimidin-4-yl)-amine]",99,-8,4,11,7,-1,8,44,15,7,5,-12,6,19,9,12,12,4,11,-7,IC50 (EGFR): 10.5 nM
"Nc1cccc(Nc2ncnc3sc4c(c23)CCCC4)c1 [Compound 4, N-(5,6,7,8-Tetrahydro-benzo[4,5]thieno[2,3-d]pyrimidin-4-yl)-benzene-1,3-diamine]",98,1,-7,16,5,-2,12,-7,6,2,8,0,7,6,6,14,24,2,9,2,IC50 (EGFR): 16.8 nM; melting point: 164.3 °C (dec.)
"Clc1ccc(Nc2ncnc3sc4c(c23)CCCC4)cc1 [Compound 7, (4-Chloro-phenyl)-(5,6,7,8-tetrahydro-benzo[4,5]thieno[2,3-d]pyrimidin-4-yl)-amine]",100,-11,-9,-1,5,2,9,-16,-7,10,-9,15,3,-15,-3,-20,25,-7,30,-17,IC50 (EGFR): 12.8 nM; melting point: 191.2 °C
